The IC50 is the concentration at which inhibition is half-maximal.

Data set [1] addresses T1, COX-2 (Homo sapiens, UniProt P35354).
T1 construct: purchased
T1 sequence (P35354 18-604): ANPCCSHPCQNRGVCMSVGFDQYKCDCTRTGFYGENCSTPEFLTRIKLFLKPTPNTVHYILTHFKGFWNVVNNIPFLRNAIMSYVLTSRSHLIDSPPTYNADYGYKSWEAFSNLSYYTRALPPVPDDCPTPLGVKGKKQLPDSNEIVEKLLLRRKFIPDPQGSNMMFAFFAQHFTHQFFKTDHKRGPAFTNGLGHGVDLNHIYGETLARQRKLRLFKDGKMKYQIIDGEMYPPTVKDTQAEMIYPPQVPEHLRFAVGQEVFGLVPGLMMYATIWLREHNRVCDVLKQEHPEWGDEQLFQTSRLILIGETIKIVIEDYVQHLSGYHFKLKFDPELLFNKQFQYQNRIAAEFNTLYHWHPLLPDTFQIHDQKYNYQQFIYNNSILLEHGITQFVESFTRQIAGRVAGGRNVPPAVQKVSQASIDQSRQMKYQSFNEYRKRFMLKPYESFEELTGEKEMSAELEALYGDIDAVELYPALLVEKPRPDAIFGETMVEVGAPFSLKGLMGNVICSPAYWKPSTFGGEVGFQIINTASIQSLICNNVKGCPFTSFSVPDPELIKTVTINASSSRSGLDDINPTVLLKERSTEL
The data set is described as follows: Cyclooxygenase inhibition assay (colorimetric, peroxidase activity, TMPD oxidation). It is filed as biochemical. As to conditions: for IC50: incubation 2 min, mean ± SD; for Selectivity Ratio: (COX-2/COX-1): ratio of IC50 values. How it is done:
To conduct the cyclooxygenase inhibition assay, we utilized a kit from the manufacturer that contained 150 μL of assay buffer, 10 μL of heme, and 10 μL of either COX-1 or COX-2 enzyme. Each sample was prepared in triplicate, with the addition of 10–500 μM of the test compounds and […] of solvents such as methanol, ethanol, and dimethyl sulfoxide (DMSO). We then added 20 μL of N,N,N cent,N cent-tetramethyl-p-phenylenediamine (TMPD) to each well. Arachidonic acid was introduced to initiate the reaction, which was allowed to proceed for 2 min. Following the incubation period, the extent of TMPD oxidation was measured using the multiscan Go microplate reader at a wavelength of 590 nm (Thermo Fisher Scientific, Waltham, MA, USA).
Cyclooxygenase (COX) peroxidase activity was evaluated using a colorimetric assay. […] The incubation period was maintained at 2 min, following the manufacturer’s guidelines. […] IC50 values were then calculated, and the ratio of IC50 values for both cyclooxygenase isoforms allowed us to assess the selectivity of the tested structures for COX-1 and COX-2.

Data set [2] can be described thus: ABTS radical scavenging assay. It is filed as physicochemical. To be noted: 30 min incubation; mean ± SD, n = 3. As to the method:
The activity of ABTS (2,2′-azino-bis(3-ethylbenzothiazoline-6-sulphonic acid)) was assessed to evaluate the radical scavenging potential of the synthesized compounds. The ABTS reagent was generated by combining equal volumes of a 7 mM aqueous solution of ABTS and a 2.45 mM potassium persulfate solution. This mixture was then incubated in the dark at room temperature for 16 h. Following incubation, the solution was diluted with ethanol until the absorbance reached approximately 0.7 ± 0.05 at a wavelength of 734 nm. The stock solutions of the synthesized compounds in DMSO were serially diluted to obtain concentrations ranging from 500 μM to 10 μM in ethanol. The ABTS reagent was then treated with various concentrations of each compound and incubated in the dark at room temperature. After 30 min of incubation, the absorbance was measured at 734 nm, using ethanol as the blank control. Ascorbic acid served as the standard for comparison, and the IC50 values for the synthesized compounds were calculated using the following Equation (3):(3) %ABTS scavenging activity=Abscontrol−Abs sample/Abs (control)×100

The nature of data set [3]: DPPH radical scavenging assay. It is filed as physicochemical. To be noted: 30 min incubation, 37 °C; mean ± SD, n = 3. How it is done:
The DPPH assay was conducted to assess the radical scavenging capabilities of the synthesized compounds. Stock solutions of the compounds were formulated in DMSO and subsequently diluted serially to achieve test concentrations ranging from 500 to 10 μM in ethanol. Each sample’s ethanolic DPPH solution was treated with the respective test concentrations and incubated at 37 °C. After a 30 min incubation period, the absorbance was measured at 517 nm, using ethanol as the blank control. Ascorbic acid served as the reference standard, and the IC50 values for the synthesized compounds were determined using the following Equation (2):(2) %DPPH scavenging activity=Abscontrol−Abs sample/Abs (control)×100
For orientation: The DPPH test is a chemical assay of radical scavenging.

In data set [4] the test system is NHDF cells exposed to LPS. The data set is described as follows: Inflammation model, MTT assay after LPS. Type of data set: cell-based, human. To be noted: LPS 50 µg/mL 24 h, then compound 10, 50, 100 µM 24 h. How it is done:
Cells seeded in 96-well plates were treated with 50 ug/mL LPS for 24 h for the MTT assay or 1 h for the DCF-DA assay. […] After this time, MTT and DCF-DA assays were performed according to the procedure described in Wiatrak et al.
Background: Formazan colour is commonly taken as a measure of viable cells.

With `COc1ccc(C(=O)C2=C(O)c3ccccc3S(=O)(=O)N2CCCN2CCN(c3ccccn3)CC2)cc1` [BS23], the IC50 was 13.2 ± 2.1 µM in data set [1], 54.2 ± 2.2 µM in data set [2] and over 500 µM in data set [3]. In addition, the “Selectivity Ratio: (COX-2/COX-1)” value in data set [1] was determined as 0.05. In addition, the “cell viability after LPS then compound” value in data set [4] is on record as “around 70 % of the value for untreated (control) cells”.
Take `O=C(C1=C(O)c2ccccc2S(=O)(=O)N1CC(=O)N1CCN(c2ccccc2)CC1)c1ccc(Br)cc1` [BS28, 3-(4-Bromobenzoyl)-2-[2-(4-phenylpiperazin-1-yl)-2-oxoethyl]-4-hydroxy-2H-1,2-benzothiazine 1,1-dioxide]: the figures for the IC50 in data set [1], in data set [2] and in data set [3] were 12.5 ± 1.9 µM, 88.4 ± 1.9 µM and over 500 µM, respectively. Moreover, the “Selectivity Ratio: (COX-2/COX-1)” value in data set [1] is 0.13.

For the origin of these results see paper PMC11678778, “Anti-Inflammatory Properties of Novel 1,2-Benzothiazine Derivatives and Their Interaction with Phospholipid Model Membranes” (Membranes, 2024).
